Laboratory results taken from patent US5011838A, “Pharmacologically active 2-substituted 3-(2-ethoxyethyl) imidazo[4,5-b]pyridines and pharmaceutical compositions containing them” (Dompe Farmaceutici S.p.A., priority 1989, dated 1991).

Key:
[1] = system: mortality induced by histamine; test: Effect on the mortality induced by histamine; type: in vivo, male albino guinea pigs (Dunkin-Hartley); conditions: Cavia porcellus, po, 1 h; p.o., 60 min before 1.25 mg/kg i.v. histamine dihydrochloride; guinea pig; read-out: Mortality induced by hystamine ED50 p.o.
Description: The method described by Romer D. et al. (Med. Welt. 17,791, 1966) was followed and the tests were carried out on male albino guinea pigs (Dunkin-Hartley), weighing 350 to 450 g which were kept in cages with a grid floor, on an empty stomach for 24 hours with water ad libitum. The compounds under examination have been orally administered to the animals, dissolved in 0.5% carboxymethylcellulose, 60 minutes before intravenous administration of 1.25 mg/kg of histamine dihydrochloride in saline solution. In the control animals, treated with carboxymethylcellulose, the intravenous administration of histamine dihydrochloride induced a 100% mortality.
It has been evaluated ED50, which corresponds to the amount of the compound able to inhibit to 50% the mortality induced by histamine: estimation of ED50 has been made applying the `probit` method (Finney D. J. "Statistical method in biological assay", pg 512,1957).

[2] = system: mortality induced by compound 48/80; test: Mortality inhibition by compound 48/80; type: in vivo, Sprague Dawley Nos male rats; conditions: ip, half an hour before 2 mg/kg i.v. compound 48/80; rat; 4 hours observation
Description: For evaluating the protection to the mortality induced by compound 48/80 administration the method described by C. J. E. Niemegeers et al. (Arch. Int. Pharmacodyn, 234,164,1978) was followed.
Sprague Dawley Nos male rats (Nossan, Correzzana, Milano) weighing 140 to 150 g, divided into groups of 10 animals each, on an empty stomach for 24 hours with water "ad libitum", were kept in cages with a grid floor, and treated intravenously with 2 mg/kg of compound 48/80 (1 ml/rat).
The animals were kept under observation for 4 hours taking note of their mortality. The results were expressed as the number of animals dead with respect to the number of treated animals. Compounds under examination or the carrier were administered half an hour before administration of compound 48/80 by intraperitoneal route, dissolved in H2 O (5 ml/kg). The experimental data were submitted to the variance analysis and to subsequent multiple comparisons according to Dunnet (D. J. Finney, in "Statistical Methods in Biological assay", Ed. L. Griffin and Co. Ltd., pag. 152,1957, Edition Ames Iowa, 1971).

[3] = Evaluation of the lethal dose50 (LD50), acute toxicity; conditions: in vivo, ip; mouse; 14 days observation
Description: Swiss Nos (Nossan, Correzzana, Milano) mice, weighing 18 to 20 g each, on an empty stomach for 18 hours with water "ad libitum" and kept in cages with grid floor, were used. The animals, divided into groups of 10 animals each, (5M+5F) were treated intraperitoneally (10 ml/kg) with the compounds under examination dissolved in water or suspended in 0.5% carboxymethylcellulose. The animals were kept in the cages and the mortality occurred within the following 6 hours was noted down. At the expiring of the 6 hours the animals were allowed to eat up to the end of the experimentation which lasted 14 days. During this period all the toxic symptoms and the mortality occuring were noted.
The animals which died during the test period and those which were sacrificed at the end of the same, underwent autopsy for a macroscopic examination of their main organs. The experimental data were statistically compared with the X^2 method and LD50 was extrapolated by the `probit` method.

| SMILES | ED50 [1] [mg/kg] | ED50 [2] [mg/kg] | LD50 at 336 h [3] [mg/kg] |
| --- | --- | --- | --- |
| CCOCCn1c(CCCN(C)C)nc2cccnc21 [Example 1, 3-(2-Ethoxyethyl)-2-(3-dimethylaminopropyl)-3H-imidazo [4,5-b] pyridine] | 0.03 | 0.5 | > 100 |
| CCOCCn1c(CCN(C)C)nc2cccnc21 [Example 2, 3-(2-Ethoxyethyl)-2-(2-dimethylaminoethyl)-3 H-imidazo [4,5-b] pyridine] | 0.025 | 0.3 | > 100 |
| CCOCCn1c(CCCN2CCOCC2)nc2cccnc21.O=C(O)/C=C/C(=O)O.O=C(O)/C=C/C(=O)O [Example 9, 3-(2-Ethoxyethyl)-2-[3-(morpholin-4-yl)propyl]-3H-imidazo [4,5-b] pyridine difumarate] | 0.003 | 0.5 | > 100 |
| CC(C)(C)c1ccc(C(O)CCCN2CCC(C(O)(c3ccccc3)c3ccccc3)CC2)cc1 (stereo not drawn) [Terfenadine, reference compound] | 0.436 | 1.09 | 620 |
